Consider three molecules from patent US8258099B2, “Pin1-modulating compounds and methods of use thereof” (Max-Planck-Gesellschaft zur Foerderung der Wissenschaften …, priority 2004, dated 2012).

Experiment [1] deals with T1, full length hPin1 (Homo sapiens, UniProt Q13526).
T1 construct: The protease free assay ensures reliable measurement of IC50 values for the full-length hPin1
In words: Isothermal titration calorimetry (ITC), full length hPin1. Type of experiment: binding. The protocol:
FIGS. 3A-B depicts a thermodynamic characterization of the binding of peptide 17 towards full length hPin1 by isothermal titration calorimetry (ITC). FIG. 3A depicts peaks that represent the heat evolved after injection of peptide 17 into the sample cell containing hPin1. After the 11th injection only the heat of dilution is observed. The experiment was performed at 10 C. FIG. 3B depicts integrals of the corresponding peaks of panel A are plotted against the molar ratio of peptide 17 and hPin1. The solid line represents a nonlinear least squares fit analysis of the binding heat assuming a single binding site model with the following parameters: ΔHbind=−4561±36 cal/mol, TΔSbind=5433±529 cal/mol, n=0.96 (binding stoichiometry) and KAss=5.18×10^7±7×10^6 M^−1 (association constant).
Calorimetric experiments were performed using a VP-ITC titration calorimeter (MicroCal, Inc, Northampton, Mass.) at 10° C. All solutions were degassed under vacuum prior to use. Solutions of hPin1 and hPin1 PPIase domain were dialyzed against 10 mM Hepes (pH 7.8). The protein concentration in the sample cell was adjusted to 6.5 μM using the same batch of buffer. Protein concentrations were determined as described above. The volume of the protein solution in the sample cell was 1.4 ml. The injection syringe was filled with 300 μl solution of peptide 17 (see table III) (250 μM in the same batch of buffer as used for dialyses). Each titration experiment consisted of a single 1 μl injection followed by 16 identical injections of 5 μl solution of peptide 17.
In principle, minimally four forms of a competing substrate in the presence of hPin1 have to be considered, the free cis and trans isomers together with two Michaelis complexes. This four-site exchange model of PPIase catalysis involves understanding predisposing factors of the stability of hPin1/substrate complexes, expected to be weaker, than the stability for those formed by phosphopeptides lacking substrate properties. The consequent increase in inhibitory potency could be realized by a transition state destabilizing substitution in peptide 15. Previous studies have shown that following C^α-stereocenter inversion of a substrate at the P1 position the parvulins fully retain substrate-like active site affinity for the derivatives while catalytic rate acceleration is abolished (Schiene et al., 1998). […] To optimize solute diffusion after mechanical injection of the Pin1 binding peptides into the viscous Xenopus laevis egg cytosol, the molecular weight of 1376.5 for peptide 16 was reduced to 823.8 for peptide 17. Following chain truncation peptide 17 maintained high affinity for Pin1 (Table III). To ensure domain selectivity, the binding of peptide 17 towards hPin1 was characterized using the isothermal titration calorimetry (ITC). […] The dissociation constant determined with ITC is in the same range as obtained in the protease-free PPIase assay (Table III).

Experiment [2] deals with T2, hPin1 (Homo sapiens, UniProt Q13526).
T2 construct: The protease free assay ensures reliable measurement of IC50 values for the full-length hPin1
The experiment can be described thus: Protease free PPIase assay, hPin1. It is filed as biochemical. The protocol: Protein concentrations were determined using the extinction coefficient ε280=21030 M^−1 cm^−1 for hPin1, ε280=6979 M^−1 cm^−1 for the hPin1 PPIase domain, ε280=21030 M^−1 cm^−1 for XlPin1, ε280=8250 M^−1 cm^−1 for hPar14 and ε280=8250 M^−1 cm^−1 for hCyp18. Extinction coefficients were calculated using the program ProtParam Tool at ExPASy (SIB, Switzerland). All measurements were done at 10° C. in 35 mM Hepes buffer (pH 7.8).
The determination of the kinetic constants of the cis/trans isomerization within the protease-free system was performed using fluorescence based measurements (Garcia-Echeverria et al., 1993, Zhang et al., 2002) on a Hitachi F-3010 fluorescence spectrophotometer with H-Abz-Ala-Glu-Pro-Phe-NH-Np (SEQ ID NO: 2) as substrate. The substrate stock solution was 12 mM in anhydrous trifluoroethanol/0.55 M LiCl. Measurements were initiated by addition of the substrate (final concentration 10 μM) to a pre-incubated (15 min) mixture of 8.8 nM hPin1 or 7.1 nM XlPin1 and respective inhibitory peptide of desired concentrations. The excitation wavelength was 320 nm (spectral bandwidth 3 nm) and emission was detected at 420 nm (spectral bandwidth 10 nm).
Data analysis was performed by single-exponential nonlinear regression using the SigmaPlot Scientific Graphing System Version 5.00 (Jandel Corp.). The apparent first order rate constant kobs was computed by nonlinear regression of the progress curve obtained for the respective measurement. The rate constant k0 was determined in the absence of Pin1. The first order rate constants kenz was calculated from the equation kenz=kobs−k0. IC50 and Ki values were determined by fitting the first order rate constants kenz against the concentration of the inhibitory peptide by nonlinear regression according to Schutkowski et al., 1995 or a model for tight binding inhibitors (Morrison, 1969).
The protease free assay ensures reliable measurement of IC50 values for the full-length hPin1.

The target in experiment [3] is T3, GST-hPin1, GST-hPin1 PPIase and GST-hPin1 WW domain (Homo sapiens, UniProt Q13526).
T3 construct: made in house
The experiment can be described thus: Far western blot related analysis, hPin1 and its single domains. It is filed as binding. The conditions noted are these: 1 μM peptide 15, 50 μM nonphosphorylated derivative. On the procedure:
FIGS. 2A-B depict western blot experiments analyzing the binding of peptide 15 to Pin1. FIG. 2A depicts the binding preferences of the PPIase and WW domain of hPin1 regarding peptide 15. In far western blot related experiments, increasing amounts (from left to right: 1, 5, 10, 52.5, 105 pmol) of GST, GST-hPin1 or its single GST-hPin1 PPIase and GST-hPin1 WW domain were spotted onto nitrocellulose membranes followed by a blocking procedure. The membranes were then incubated with a 1 μM solution of peptide 15 or 50 μM solution of its nonphosphorylated derivative (control). Signals were detected after incubation of the nitrocellulose membranes with horseradish peroxidase-conjugated streptavidin followed by a chemiluminescent reaction using the SuperSignal® substrate. FIG. 2B depicts an analysis of the binding of peptide 15 towards different GST-hPin1 variants. […] Residual PPIase activities of GST-hPin1 and its variants were determined according to Zhou et al., 2000 and/or Yaffe et al., 1997. The PPIase activity of the GST-hPin1 variant Ser16Glu was measured in the protease free PPIase assay.
GST-hPin1 variants, GST-hPin1 PPIase and GST-hPin1 WW domain were prepared as described previously (Ranganathan et al., 1997, Zhou et al., 2000). […] Specific bound peptide 15 was detected by a chemiluminescent reaction using the SuperSignal® substrate (Pierce).

Square brackets hold non-standard residues; d marks the D form. Peptide text beside a SMILES is read from it. * marks the point of attachment. Biotin = O=C1N[C@H]2[C@H](CS[C@H]2CCCCC(=O)*)N1; pT = C[C@@H](OP(=O)(O)O)[C@H](N)C(=O)O; 2Nal = N[C@@H](Cc1ccc2ccccc2c1)C(=O)O; Bta = N[C@@H](Cc1csc2ccccc12)C(=O)O; Pip = O=C(O)[C@@H]1CCCCN1 Some results are limits rather than exact numbers.

T1 sequence (Q13526 whole entry): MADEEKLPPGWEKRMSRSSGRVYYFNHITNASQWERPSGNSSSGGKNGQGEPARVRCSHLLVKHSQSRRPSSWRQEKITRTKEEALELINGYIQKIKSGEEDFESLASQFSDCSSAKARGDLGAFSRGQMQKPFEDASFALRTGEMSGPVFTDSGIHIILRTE
T2 sequence (Q13526 whole entry): as above
T3 sequence (Q13526 whole entry, the tested form may be a part): as the sequence (Q13526 whole entry) above

By Kd is commonly meant the constant that tells how readily two partners part at equilibrium. Read a low Kd as a tighter complex. `CC(=O)N[C@@H](Cc1ccccc1)C(=O)N[C@H](C(=O)N1CCCC[C@H]1C(=O)N[C@@H](Cc1ccc2ccccc2c1)C(=O)N[C@@H](CCC(N)=O)C(N)=O)[C@@H](C)OP(=O)(O)O` [Ac-Phe-L-Thr(PO3H2)-Pip-Nal-Gln-NH2, reference compound] (Ac-F[pT][Pip][2Nal]Q-NH2) yielded a Kd in experiment [1] of 600 nM.

In general, IC50 refers to the concentration needed to halve the response being measured. As to “Ac-Lys(Nε-biotinoyl)-Ala-Ala-Xaa-Thr(PO3H2)-Yaa-Zaa-Gln-NH2 with Xaa Bth, Yaa Pro, Zaa Cha [Peptide 3]”, in experiment [2] (blockade of PPIase activity of full-length hPin1, protease free assay, 10° C., read-out: IC50), the IC50 was above 50000 nM.

With “nonphosphorylated derivative of peptide 15: peptide 15 lacking the phosphoester group on threonine, used as control (Ac-K(Biotin)AA[Bta]T[Pip][2Nal]Q-NH2; SMILES CC(=O)N[C@@H](CCCCNC(=O)CCCC[C@@H]1SC[C@@H]2NC(=O)N[C@@H]21)C(=O)N[C@@H](C)C(=O)N[C@@H](C)C(=O)N[C@@H](Cc1csc2ccccc12)C(=O)N[C@H](C(=O)N1CCCC[C@H]1C(=O)N[C@@H](Cc1ccc2ccccc2c1)C(=O)N[C@@H](CCC(N)=O)C(N)=O)[C@@H](C)O) [reference compound]”, the hPin1 inhibition result in experiment [2] (25 μM, phosphoester group on threonine lacking) was “does not show any hPin1 inhibition”. Besides, the “binding to GST-hPin1 and its PPIase and WW domains” value in experiment [3] was “not able to form a complex”.
